From PubChem BioAssay (NCI)
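Interpolation was linear, between the two tested concentrations surrounding the appropriate level; five concentrations were tested over 48 hours in 96-well plates. At the GI50, growth is halved. TGI: total growth inhibition.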

What was measured:
Experiment in all cases: NCI tumour cell line growth inhibition, 48 h
[1] = tested on: MOLT-4 leukemia
[2] = tested on: NCI-H226 lung
[3] = tested on: NCI-H23 lung
[4] = tested on: NCI-H460 lung
[5] = tested on: NCI-H522 lung
[6] = tested on: NCI/ADR-RES ovarian
[7] = tested on: OVCAR-3 ovarian
[8] = tested on: OVCAR-4 ovarian
[9] = tested on: OVCAR-5 ovarian
[10] = tested on: OVCAR-8 ovarian
[11] = tested on: PC-3 prostate
[12] = tested on: RPMI-8226 leukemia
[13] = tested on: RXF 393 renal
[14] = tested on: SF-268 CNS
[15] = tested on: SF-295 CNS
[16] = tested on: SF-539 CNS
[17] = tested on: SK-MEL-28 melanoma
[18] = tested on: SK-MEL-5 melanoma
[19] = tested on: SK-OV-3 ovarian
[20] = tested on: SN12C renal
[21] = tested on: SNB-19 CNS
[22] = tested on: SR leukemia
[23] = tested on: SW-620 colon
[24] = tested on: T-47D breast
[25] = tested on: TK-10 renal
[26] = tested on: U251 CNS
[27] = tested on: UACC-257 melanoma
[28] = tested on: UACC-62 melanoma

`N#Cc1c(-c2ccc(F)cc2)nc(SCc2ccccc2)nc1N1CCNCC1` showed a TGI [1] of 21.2 µM, a GI50 [2] of 13.8 µM and a TGI [2] of 33.4 µM. It also gave a GI50 [3] of 15.1 µM, a TGI [3] of 29.3 µM and a GI50 [4] of 9.2 µM. The TGI [4] was 22.9 µM, the GI50 [5] was 11.3 µM and the TGI [5] was 25.1 µM. The GI50 [6] was 11.7 µM, the TGI [6] was 27.4 µM and the GI50 [7] was 14.3 µM. The TGI [7] was 29.1 µM, the GI50 [8] was 15.7 µM and the TGI [8] was 34.2 µM. It also gave a GI50 [9] of 14.1 µM, a TGI [9] of 27.6 µM and a GI50 [10] of 6.21 µM. For the same molecule, the TGI [10] was 21.8 µM, the GI50 [11] was 11.8 µM and the TGI [11] was 25.8 µM. For the same molecule, the GI50 [12] was 3.99 µM, the TGI [12] was 17.5 µM and the GI50 [13] was 3.14 µM. It also gave a TGI [13] of 14.8 µM, a GI50 [14] of 12.9 µM and a TGI [14] of 29.1 µM. For the same molecule, the GI50 [15] was 15.8 µM, the TGI [15] was 30.1 µM and the GI50 [16] was 15.7 µM. It also gave a TGI [16] of 29.4 µM, a GI50 [17] of 16.3 µM and a TGI [17] of 30.3 µM. For the same molecule, the GI50 [18] was 15.7 µM, the TGI [18] was 29.2 µM and the GI50 [19] was 16 µM. For the same molecule, the TGI [19] was 29.5 µM, the GI50 [20] was 13.8 µM and the TGI [20] was 27.2 µM. The GI50 [21] was 14.2 µM, the TGI [21] was 29.3 µM and the GI50 [22] was 1920 nM. The TGI [22] was 4.61 µM, the GI50 [23] was 3.38 µM and the TGI [23] was 13.1 µM. The GI50 [24] was 10.1 µM, the TGI [24] was 24.8 µM and the GI50 [25] was 14.5 µM. It also gave a TGI [25] of 28.4 µM, a GI50 [26] of 4.36 µM and a TGI [26] of 16.1 µM. For the same molecule, the GI50 [27] was 13.1 µM, the TGI [27] was 26.2 µM and the GI50 [28] was 14.4 µM. It also gave a TGI [28] of 28.2 µM.
